Source: PubChem BioAssay (NCI)
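Cultured in 96-well plates, cells were exposed to test compound for 48 hours across five concentrations. GI50 marks 50% less growth. At the TGI there is no net growth.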

Experiments:
Experiment in all cases: growth of human tumour cells (NCI), 48 h
786-0 renal = system: 786-0 renal
A498 renal = system: A498 renal
A549 NSCLC = system: A549 NSCLC
ACHN renal = system: ACHN renal
BT-549 breast = system: BT-549 breast
CAKI-1 renal = system: CAKI-1 renal
COLO 205 colon = system: COLO 205 colon
DU-145 prostate = system: DU-145 prostate
EKVX NSCLC = system: EKVX NSCLC
HCC-2998 colon = system: HCC-2998 colon
HCT-116 colon = system: HCT-116 colon
HCT-15 colon = system: HCT-15 colon
HL-60(TB) leukemia = system: HL-60(TB) leukemia
HOP-62 NSCLC = system: HOP-62 NSCLC
HOP-92 NSCLC = system: HOP-92 NSCLC
HS 578T breast = system: HS 578T breast
HT29 colon = system: HT29 colon
IGROV1 ovarian = system: IGROV1 ovarian
KM12 colon = system: KM12 colon
LOX IMVI melanoma = system: LOX IMVI melanoma
M14 melanoma = system: M14 melanoma
MALME-3M melanoma = system: MALME-3M melanoma
MCF7 breast = system: MCF7 breast
MDA-MB-231 breast = system: MDA-MB-231 breast
MDA-MB-435 = system: MDA-MB-435
MOLT-4 leukemia = system: MOLT-4 leukemia
NCI-H226 lung = system: NCI-H226 lung
NCI-H23 lung = system: NCI-H23 lung
NCI-H460 lung = system: NCI-H460 lung
NCI-H522 lung = system: NCI-H522 lung
NCI/ADR-RES ovarian = system: NCI/ADR-RES ovarian
OVCAR-3 ovarian = system: OVCAR-3 ovarian
OVCAR-4 ovarian = system: OVCAR-4 ovarian
OVCAR-5 ovarian = system: OVCAR-5 ovarian
OVCAR-8 ovarian = system: OVCAR-8 ovarian
PC-3 prostate = system: PC-3 prostate
RPMI-8226 leukemia = system: RPMI-8226 leukemia
RXF 393 renal = system: RXF 393 renal
SF-268 CNS = system: SF-268 CNS
SF-295 CNS = system: SF-295 CNS
SF-539 CNS = system: SF-539 CNS
SK-MEL-2 melanoma = system: SK-MEL-2 melanoma
SK-MEL-28 melanoma = system: SK-MEL-28 melanoma
SK-MEL-5 melanoma = system: SK-MEL-5 melanoma
SK-OV-3 ovarian = system: SK-OV-3 ovarian
SN12C renal = system: SN12C renal
SNB-19 CNS = system: SNB-19 CNS
SNB-75 CNS = system: SNB-75 CNS
SW-620 colon = system: SW-620 colon
T-47D breast = system: T-47D breast
TK-10 renal = system: TK-10 renal
U251 CNS = system: U251 CNS
UACC-257 melanoma = system: UACC-257 melanoma
UACC-62 melanoma = system: UACC-62 melanoma
UO-31 renal = system: UO-31 renal
CCRF-CEM leukemia = system: CCRF-CEM leukemia
SR leukemia = system: SR leukemia

For `C=CCCCCC/C=C\[C@H](O)C#CC#C/C=C/CO`, the GI50 (786-0 renal) was 29.3 µM, the TGI (786-0 renal) was 82.2 µM and the GI50 (A498 renal) was 20.3 µM. It also gave a TGI (A498 renal) of 51.9 µM, a GI50 (A549 NSCLC) of 21.2 µM and a TGI (A549 NSCLC) of 45.4 µM. For the same compound, the GI50 (ACHN renal) was over 100 µM, the TGI (ACHN renal) was over 100 µM and the GI50 (BT-549 breast) was 20.1 µM. For the same compound, the TGI (BT-549 breast) was 54.7 µM, the GI50 (CAKI-1 renal) was 32.6 µM and the TGI (CAKI-1 renal) was 86.6 µM. The GI50 (COLO 205 colon) was 36.7 µM, the TGI (COLO 205 colon) was over 100 µM and the GI50 (DU-145 prostate) was 66.3 µM. The TGI (DU-145 prostate) was over 100 µM, the GI50 (EKVX NSCLC) was 52.7 µM and the TGI (EKVX NSCLC) was over 100 µM. For the same compound, the GI50 (HCC-2998 colon) was 12.5 µM, the TGI (HCC-2998 colon) was 25.1 µM and the GI50 (HCT-116 colon) was 22.6 µM. The TGI (HCT-116 colon) was 48.6 µM, the GI50 (HCT-15 colon) was 30 µM and the TGI (HCT-15 colon) was over 100 µM. It also gave a GI50 (HL-60(TB) leukemia) of 3.64 µM, a TGI (HL-60(TB) leukemia) of 24.1 µM and a GI50 (HOP-62 NSCLC) of over 100 µM. The TGI (HOP-62 NSCLC) was over 100 µM, the GI50 (HOP-92 NSCLC) was 52.8 µM and the TGI (HOP-92 NSCLC) was over 100 µM. The GI50 (HS 578T breast) was 45.4 µM, the TGI (HS 578T breast) was over 100 µM and the GI50 (HT29 colon) was over 100 µM. It also gave a TGI (HT29 colon) of over 100 µM, a GI50 (IGROV1 ovarian) of 19.4 µM and a TGI (IGROV1 ovarian) of 53.7 µM. The GI50 (KM12 colon) was 18.3 µM, the TGI (KM12 colon) was 33.7 µM and the GI50 (LOX IMVI melanoma) was 16.4 µM. For the same compound, the TGI (LOX IMVI melanoma) was 29.9 µM, the GI50 (M14 melanoma) was 86.2 µM and the TGI (M14 melanoma) was over 100 µM. For the same compound, the GI50 (MALME-3M melanoma) was 54 µM, the TGI (MALME-3M melanoma) was over 100 µM and the GI50 (MCF7 breast) was 38.5 µM. The TGI (MCF7 breast) was over 100 µM, the GI50 (MDA-MB-231 breast) was 14.5 µM and the TGI (MDA-MB-231 breast) was 33.8 µM. The GI50 (MDA-MB-435) was 39.8 µM, the TGI (MDA-MB-435) was over 100 µM and the GI50 (MOLT-4 leukemia) was 17.3 µM. It also gave a TGI (MOLT-4 leukemia) of 49.2 µM, a GI50 (NCI-H226 lung) of 15.2 µM and a TGI (NCI-H226 lung) of 31 µM. For the same compound, the GI50 (NCI-H23 lung) was 22.6 µM, the TGI (NCI-H23 lung) was 50.9 µM and the GI50 (NCI-H460 lung) was over 100 µM. It also gave a TGI (NCI-H460 lung) of over 100 µM, a GI50 (NCI-H522 lung) of 19.3 µM and a TGI (NCI-H522 lung) of 45.4 µM. For the same compound, the GI50 (NCI/ADR-RES ovarian) was 23.5 µM, the TGI (NCI/ADR-RES ovarian) was 57.3 µM and the GI50 (OVCAR-3 ovarian) was 31.7 µM. For the same compound, the TGI (OVCAR-3 ovarian) was 80.3 µM, the GI50 (OVCAR-4 ovarian) was 90.8 µM and the TGI (OVCAR-4 ovarian) was over 100 µM. For the same compound, the GI50 (OVCAR-5 ovarian) was 43.3 µM, the TGI (OVCAR-5 ovarian) was over 100 µM and the GI50 (OVCAR-8 ovarian) was 20.2 µM. It also gave a TGI (OVCAR-8 ovarian) of 52 µM, a GI50 (PC-3 prostate) of 18.6 µM and a TGI (PC-3 prostate) of 36.1 µM. The GI50 (RPMI-8226 leukemia) was 14 µM, the TGI (RPMI-8226 leukemia) was 32.2 µM and the GI50 (RXF 393 renal) was 34.5 µM. The TGI (RXF 393 renal) was over 100 µM, the GI50 (SF-268 CNS) was 24.5 µM and the TGI (SF-268 CNS) was 70.5 µM. For the same compound, the GI50 (SF-295 CNS) was 60.3 µM, the TGI (SF-295 CNS) was over 100 µM and the GI50 (SF-539 CNS) was 58.2 µM. The TGI (SF-539 CNS) was over 100 µM, the GI50 (SK-MEL-2 melanoma) was 83.3 µM and the TGI (SK-MEL-2 melanoma) was over 100 µM. For the same compound, the GI50 (SK-MEL-28 melanoma) was over 100 µM, the TGI (SK-MEL-28 melanoma) was over 100 µM and the GI50 (SK-MEL-5 melanoma) was 38.5 µM. It also gave a TGI (SK-MEL-5 melanoma) of over 100 µM, a GI50 (SK-OV-3 ovarian) of over 100 µM and a TGI (SK-OV-3 ovarian) of over 100 µM. For the same compound, the GI50 (SN12C renal) was 15 µM, the TGI (SN12C renal) was 35.1 µM and the GI50 (SNB-19 CNS) was over 100 µM. The TGI (SNB-19 CNS) was over 100 µM, the GI50 (SNB-75 CNS) was over 100 µM and the TGI (SNB-75 CNS) was over 100 µM. For the same compound, the GI50 (SW-620 colon) was 27 µM, the TGI (SW-620 colon) was 78.5 µM and the GI50 (T-47D breast) was 98.4 µM. For the same compound, the TGI (T-47D breast) was over 100 µM, the GI50 (TK-10 renal) was 28.8 µM and the TGI (TK-10 renal) was over 100 µM. It also gave a GI50 (U251 CNS) of 24.5 µM, a TGI (U251 CNS) of 77.3 µM and a GI50 (UACC-257 melanoma) of 78.9 µM. The TGI (UACC-257 melanoma) was over 100 µM, the GI50 (UACC-62 melanoma) was 26.2 µM and the TGI (UACC-62 melanoma) was over 100 µM. For the same compound, the GI50 (UO-31 renal) was 61.9 µM and the TGI (UO-31 renal) was over 100 µM.
`COC(=O)c1cc2c3c(ccc2[nH]1)N(C(=O)c1cc2cc(OC)c(OC)c(OC)c2[nH]1)CC3CCl` (stereo not given) gave a TGI (786-0 renal) of over 52.6 µM, a TGI (A498 renal) of over 100 µM and a TGI (A549 NSCLC) of over 100 µM. The TGI (ACHN renal) was over 100 µM, the TGI (BT-549 breast) was over 100 µM and the TGI (CAKI-1 renal) was over 100 µM. The TGI (CCRF-CEM leukemia) was over 100 µM, the TGI (COLO 205 colon) was over 20.9 µM and the TGI (DU-145 prostate) was over 84.6 µM. It also gave a TGI (EKVX NSCLC) of over 100 µM, a TGI (HCC-2998 colon) of over 100 µM and a TGI (HCT-116 colon) of over 100 µM. The TGI (HCT-15 colon) was over 100 µM, the TGI (HOP-62 NSCLC) was over 72 µM and the TGI (HOP-92 NSCLC) was over 100 µM. The TGI (HS 578T breast) was over 100 µM, the TGI (HT29 colon) was over 75.8 µM and the TGI (IGROV1 ovarian) was over 100 µM. It also gave a TGI (KM12 colon) of over 100 µM, a TGI (LOX IMVI melanoma) of over 100 µM and a TGI (M14 melanoma) of over 100 µM. It also gave a TGI (MALME-3M melanoma) of over 100 µM, a TGI (MCF7 breast) of over 100 µM and a TGI (MDA-MB-231 breast) of over 100 µM. It also gave a TGI (MDA-MB-435) of over 100 µM, a TGI (MOLT-4 leukemia) of over 100 µM and a TGI (NCI-H226 lung) of over 75 µM. For the same compound, the TGI (NCI-H23 lung) was over 100 µM, the TGI (NCI-H460 lung) was over 100 µM and the TGI (NCI-H522 lung) was over 100 µM. The TGI (NCI/ADR-RES ovarian) was over 91.8 µM, the TGI (OVCAR-3 ovarian) was over 100 µM and the TGI (OVCAR-4 ovarian) was over 100 µM. For the same compound, the TGI (OVCAR-5 ovarian) was over 100 µM, the TGI (OVCAR-8 ovarian) was over 100 µM and the TGI (PC-3 prostate) was over 100 µM. For the same compound, the TGI (RPMI-8226 leukemia) was over 21.5 µM, the TGI (RXF 393 renal) was over 100 µM and the TGI (SF-268 CNS) was over 100 µM. It also gave a TGI (SF-295 CNS) of over 100 µM, a TGI (SF-539 CNS) of over 79.2 µM and a TGI (SK-MEL-2 melanoma) of over 100 µM. It also gave a TGI (SK-MEL-28 melanoma) of over 100 µM, a TGI (SK-MEL-5 melanoma) of over 100 µM and a TGI (SK-OV-3 ovarian) of over 100 µM. The TGI (SNB-19 CNS) was over 100 µM, the TGI (SNB-75 CNS) was over 100 µM and the TGI (SR leukemia) was over 100 µM. The TGI (SW-620 colon) was over 100 µM, the TGI (T-47D breast) was over 100 µM and the TGI (TK-10 renal) was over 100 µM. For the same compound, the TGI (U251 CNS) was over 100 µM, the TGI (UACC-257 melanoma) was over 100 µM and the TGI (UACC-62 melanoma) was over 100 µM. The TGI (UO-31 renal) was over 100 µM.
